Laboratory results taken from patent US11951148B1 (Fleurir ABX LLC, priority 2014, dated 2024).

What was measured:
Type in all cases: cell-based
A. baumannii 160S = experiment: MIC, CLSI broth microdilution assay; conditions: agent alone
Experimental: (§1) For the described examples, reference and clinical isolates were generally obtained from known sources, including American Type Culture Collection (Manasas, VA.) or International Health Management Associates, Inc. (Schaumberg, IL). Bacteria were cultured in suitable broth, concentrated by centrifugation, and cryopreserved in the same medium, generally containing 20% glycerol by holding at −80° C. Every two weeks a small amount of frozen culture was removed aseptically and streaked on fresh agar plates to act as a working inoculum. Following overnight growth at about 37° C., the plates were wrapped in parafilm and held at about 4° C. Bacteria (4-5 colonies) were then aseptically transferred into broth growth medium for assays as needed.
(§2) Minimal inhibitory concentration (MIC) assays were performed in a manner as described for the CLSI broth microdilution assay guideline (see, Clinical Laboratory Standards Institute, 2009, Methods for Dilution Antimicrobial Susceptibility Tests for Bacteria That Grow Aerobically; Approved Standard, Eighth Edition, M07-A8, Vol. 29, No. 2). Antibiotics were dissolved, and then serially diluted in suitable broth across the assay plate in the classical 2-fold geometric format. Antibiotic concentrations in each well at this point were double what the final assay concentration would be. Bacterial inocula were prepared by swabbing several colonies from a fresh agar plate, and resuspending the bacteria to a density that was the 0.5 McFarland turbidity standard (generally close or equivalent to 1×10^8 CFU/mL). The bacterial inocula were diluted in the broth to about 1×10^6 CFU/mL, and a suitable amount, e.g., 100 μL was overlayered onto the wells containing the diluted antibiotics. Following incubation as per the guideline, results were recorded as growth or no growth, and the lowest concentration of antibiotic where no growth was observed was declared the MIC.

E. coli 7623 [1] = experiment: MIC, CLSI broth microdilution assay; conditions: agent alone
Experimental: as §1, §2

E. coli ATCC 25922 = experiment: MIC, CLSI broth microdilution assay; conditions: agent alone
Experimental: as §1, §2

K. pneumoniae 1161486 [2] = experiment: MIC, CLSI broth microdilution assay; conditions: agent alone
Experimental: as §1, §2

K. pneumoniae 170S [3] = experiment: MIC, CLSI broth microdilution assay; conditions: agent alone
Experimental: as §1, §2

E. coli 7623 [4] = experiment: Synergy checkerboard assay of antibacterial combinations; conditions: in combination with A-24
Experimental: as §1
as §2, with “Bacterial inocula were prepared by swabbing several colonies from a fresh agar plate, and resuspending the bacteria to a density that was the 0.5 McFarland turbidity standard (generally close or equivalent to 1×10^8 CFU/mL). The bacterial inocula were diluted in the broth to about 1×10^6 CFU/mL, and a suitable amount, e.g., 100 μL was overlayered onto the wells containing the diluted antibiotics.” left out
(§3) To assay for synergy of antibacterial combinations, a recognized synergy checkerboard assay, adapted from the CLSI guideline microdilution assay, was utilized (see Eliopoulos, G. M., and Moellering, R. C, Jr., 1996. Antimicrobial Combinations, pg. 330-396. In: Lorian, V. (Ed.), Antibiotics in Laboratory Medicine, 4th Ed., Williams & Wilkins; Baltimore, MD). […] The fractional inhibitory concentration, which provides the mathematical definition (as shown below) is calculated to determine whether antibacterial synergy was observed. […]

K. pneumoniae 1161486 [5] = experiment: as above; conditions: in combination with A-24
Experimental: as §1
as §2, with “Bacterial inocula were prepared by swabbing several colonies from a fresh agar plate, and resuspending the bacteria to a density that was the 0.5 McFarland turbidity standard (generally close or equivalent to 1×10^8 CFU/mL). The bacterial inocula were diluted in the broth to about 1×10^6 CFU/mL, and a suitable amount, e.g., 100 μL was overlayered onto the wells containing the diluted antibiotics.” left out
as §3

K. pneumoniae 170S [6] = experiment: as above; conditions: in combination with A-24
Experimental: as §1
as §2, with “Bacterial inocula were prepared by swabbing several colonies from a fresh agar plate, and resuspending the bacteria to a density that was the 0.5 McFarland turbidity standard (generally close or equivalent to 1×10^8 CFU/mL). The bacterial inocula were diluted in the broth to about 1×10^6 CFU/mL, and a suitable amount, e.g., 100 μL was overlayered onto the wells containing the diluted antibiotics.” left out
as §3

Substance pristinamycin has an MIC (A. baumannii 160S) of 128 µg/mL, an MIC (E. coli 7623 [1]) of 64 µg/mL and an MIC (E. coli ATCC 25922) of 64 µg/mL. For the same substance, the MIC (K. pneumoniae 1161486 [2]) was greater than 128 µg/mL, the MIC (K. pneumoniae 170S [3]) was greater than 128 µg/mL and the “MIC of Pristinamycin in Combo” value (E. coli 7623 [4]) was 32 µg/mL. The “MIC of Pristinamycin in Combo” value (K. pneumoniae 1161486 [5]) was no more than 2 µg/mL and the “MIC of Pristinamycin in Combo” value (K. pneumoniae 170S [6]) was 2 µg/mL.
